Reference: article PMC6988797, “Antiarrhythmic Properties of Ranolazine: Inhibition of Atrial Fibrillation Associated TASK-1 Potassium Channels” (Frontiers in Pharmacology, 2019)

Tests used:
Format in all cases: cell-based
TASK-2 = target: T1, TASK-2 (Homo sapiens, UniProt O95279); experiment: two-electrode voltage clamp in Xenopus laevis oocytes, […] ranolazine
T1 construct: gene KCNK5
T1 sequence (O95279 1-499): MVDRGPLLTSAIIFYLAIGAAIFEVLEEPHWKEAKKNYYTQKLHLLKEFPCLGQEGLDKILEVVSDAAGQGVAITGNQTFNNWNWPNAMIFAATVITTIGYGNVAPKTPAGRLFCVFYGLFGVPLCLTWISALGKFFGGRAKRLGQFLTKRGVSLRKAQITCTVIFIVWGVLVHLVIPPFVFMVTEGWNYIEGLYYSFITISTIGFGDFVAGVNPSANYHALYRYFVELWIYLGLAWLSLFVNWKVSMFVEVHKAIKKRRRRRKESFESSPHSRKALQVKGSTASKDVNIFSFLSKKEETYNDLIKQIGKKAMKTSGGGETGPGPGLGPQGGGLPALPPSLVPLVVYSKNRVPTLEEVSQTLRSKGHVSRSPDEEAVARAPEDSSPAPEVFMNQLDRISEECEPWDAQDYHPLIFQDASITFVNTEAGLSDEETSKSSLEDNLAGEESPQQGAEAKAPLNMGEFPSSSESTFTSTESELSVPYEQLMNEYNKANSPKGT

TALK-2 = target: T2, TALK-2 (Homo sapiens, UniProt Q96T54); experiment: as above
T2 construct: gene KCNK17
T2 sequence (Q96T54 1-332): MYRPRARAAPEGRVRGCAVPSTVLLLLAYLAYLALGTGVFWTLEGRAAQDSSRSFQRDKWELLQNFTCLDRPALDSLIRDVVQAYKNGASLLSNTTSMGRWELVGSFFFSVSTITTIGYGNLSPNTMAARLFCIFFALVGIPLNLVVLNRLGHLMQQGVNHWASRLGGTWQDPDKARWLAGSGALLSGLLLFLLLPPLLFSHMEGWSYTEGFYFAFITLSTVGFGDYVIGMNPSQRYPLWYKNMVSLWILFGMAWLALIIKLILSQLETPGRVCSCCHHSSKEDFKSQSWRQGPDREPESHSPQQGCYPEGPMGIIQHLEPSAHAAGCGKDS

TASK-3 = target: T3, TASK-3 (Homo sapiens, UniProt Q9NPC2); experiment: as above
T3 construct: gene KCNK9

TALK-1 = target: T4, TALK-1 (Homo sapiens, UniProt Q96T55); experiment: as above
T4 construct: gene KCNK16
T4 sequence (Q96T55 1-309): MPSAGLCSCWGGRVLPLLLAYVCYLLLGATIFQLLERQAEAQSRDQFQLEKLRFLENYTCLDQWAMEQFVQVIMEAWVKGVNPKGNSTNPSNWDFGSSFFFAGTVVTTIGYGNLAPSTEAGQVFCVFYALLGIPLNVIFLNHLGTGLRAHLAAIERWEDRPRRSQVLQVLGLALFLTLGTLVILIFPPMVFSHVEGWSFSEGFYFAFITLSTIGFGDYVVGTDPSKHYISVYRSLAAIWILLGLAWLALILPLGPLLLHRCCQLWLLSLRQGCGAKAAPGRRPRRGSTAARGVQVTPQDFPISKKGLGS

TASK-1 = target: T5, TASK-1 (Homo sapiens, UniProt O14649); experiment: whole-cell patch clamp in CHO cells; two-electrode voltage clamp in Xenopus laevis oocytes; pore mutagenesis
T5 construct: gene KCNK3
T5 sequence (O14649 whole entry): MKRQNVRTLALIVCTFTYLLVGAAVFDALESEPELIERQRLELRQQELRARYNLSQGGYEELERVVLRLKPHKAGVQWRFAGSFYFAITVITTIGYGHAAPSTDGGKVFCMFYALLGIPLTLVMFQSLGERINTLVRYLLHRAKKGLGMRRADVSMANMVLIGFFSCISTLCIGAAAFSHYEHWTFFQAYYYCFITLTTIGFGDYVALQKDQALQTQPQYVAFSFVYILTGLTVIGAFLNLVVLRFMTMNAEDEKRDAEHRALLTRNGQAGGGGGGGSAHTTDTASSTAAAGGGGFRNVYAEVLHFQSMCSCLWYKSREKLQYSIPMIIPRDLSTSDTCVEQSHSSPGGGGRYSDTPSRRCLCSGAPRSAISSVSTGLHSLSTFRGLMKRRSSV

T3 sequence (Q9NPC2 whole entry): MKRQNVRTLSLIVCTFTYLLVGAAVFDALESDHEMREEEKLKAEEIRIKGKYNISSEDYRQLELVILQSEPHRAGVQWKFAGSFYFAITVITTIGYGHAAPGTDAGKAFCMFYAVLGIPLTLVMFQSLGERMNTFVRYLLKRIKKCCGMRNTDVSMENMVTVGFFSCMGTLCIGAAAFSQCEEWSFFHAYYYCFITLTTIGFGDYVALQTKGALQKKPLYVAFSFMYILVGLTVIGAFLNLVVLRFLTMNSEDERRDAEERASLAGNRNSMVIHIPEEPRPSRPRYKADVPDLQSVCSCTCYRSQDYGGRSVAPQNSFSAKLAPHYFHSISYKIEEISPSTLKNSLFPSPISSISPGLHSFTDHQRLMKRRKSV

inhibition at 300 µM (TASK-2): 30%
inhibition at 300 µM (TALK-2): 34.9%
inhibition at 300 µM (TASK-3): 28.3%
inhibition at 300 µM (TALK-1): 23%
Structure (SMILES): COc1ccccc1OCC(O)CN1CCN(CC(=O)Nc2c(C)cccc2C)CC1 (centres unmarked) [ranolazine]
IC50 (TASK-1): 30.6 µM
